{
  "source": "patent US5817634A",
  "about": "“Methods of treating diabetes mellitus and clycogen storage disease” (The UAB Research Foundation, priority 1994, dated 1998)",
  "key": {"glycogenin": {"target": "T1, glycogenin (Bos taurus, UniProt Q29RN2)", "T1 construct": "chromatography of a 105,000×g supernatant from a homogenate of beef kidney on DE-53 cellulose; tissue local slaughter house; host or cells: beef kidney", "T1 sequence (Q29RN2 1-333)": "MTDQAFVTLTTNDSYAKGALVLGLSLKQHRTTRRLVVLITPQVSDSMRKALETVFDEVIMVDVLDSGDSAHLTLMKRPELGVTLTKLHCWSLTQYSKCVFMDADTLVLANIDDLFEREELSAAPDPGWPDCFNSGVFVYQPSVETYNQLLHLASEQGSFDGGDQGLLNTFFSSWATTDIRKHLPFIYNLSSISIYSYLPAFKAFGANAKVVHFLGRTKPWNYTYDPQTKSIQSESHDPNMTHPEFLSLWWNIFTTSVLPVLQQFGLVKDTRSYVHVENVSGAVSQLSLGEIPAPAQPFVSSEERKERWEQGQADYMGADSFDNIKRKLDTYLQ", "assay": "Glycogenin assay: transfer of glucose or xylose from the UDP-sugar to exogenous glycoside acceptors", "type": "biochemical, beef", "conditions": "for activity as glucose acceptor substrate for glycogenin: UDP-[3H]glucose donor, 60 min at 37° C.; for inhibition of transfer of [3H]glucose to DBM by glycogenin: inhibitor 0.1-0.5 mM, acceptor DBM", "excerpt": "Glycogenin is a self-glycosylating glycosyltransferase which can be obtained from muscle and which can also be obtained from rat and beef kidney. The enzyme is capable of transferring glucose and xylose from the respective UDP-sugar substrates to itself and also of transferring these sugars to exogenous acceptors, such as dodecyl-β-D-maltoside, tetradecyl-β-D-maltoside, octyl-β-D-maltoside, octyl-α-D-glucoside and other glycosides, as described herein.\nFresh beef kidney was purchased from a local slaughter house. Purification of glycogenin from kidney involves the following steps: chromatography of a 105,000×g supernatant from a homogenate of beef kidney on DE-53 cellulose, chromatofocusing and chromatography on a column of UDP-glucuronic acid-agarose, which was eluted with cytidine 5'-diphosphate(CDP). […] The protein concentration of the affinity purified enzyme was determined to be 10 μg/ml with the Quantigold protein reagent (Diversified Biotech, Newton Centre, Mass.).\nAn appropriate sample of UDP-[^3 H] glucose or UDP-[^3 H] xylose (supplied in 70% ethanol by the manufacturer) was evaporated to dryness with a gentle stream of filtered air and dissolved in 50 mM Tris Cl, pH 7.4/75 mM BAL/1.5 mM ATP. […] After incubation for 60 min at 37° C. product formation was measured by either of the two procedures described below.\nProduct isolation by precipitation with trichloracetic acid. After completed incubation, 1% bovine serum albumin (50 μl) and 10% trichloracetic acid/4% phosphotungstic acid (150 μl) were added, and the mixture was vortexed and kept on ice for at least 15 min. The precipitate was sedimented by centrifugation in a microfuge and washed three times with 5% trichloroacetic acid. The bottom of the tube, containing the pellet, was clipped off with a dog nail clipper and dropped into a 6 ml scintillation vial, the protein was dissolved in 250 μl of 2M NaOH, and, after neutralization with 250 μl of 2M HCl, 4.5 ml of Ecolume was added, and the radioactivity was measured.\nProduct isolation by adsorption to SepPak C18 cartridges. The reaction mixture was brought to a, volume of 0.5 ml by addition of water and was heated to 100° C. for 1 min. After cooling to room temperature, the mixture was centrifuged, and a 10 μl aliquot was removed for measurement of total radioactivity. The remaining 490 μl was applied with the use of a 10 ml syringe to a SepPak C18 cartridge, which had been preconditioned by washing with 8 ml of 95% ethanol, 8 ml of 70% ethanol, and 20 ml of water. After sample application, the cartridge was washed with 2×9 ml of water, followed by an additional 2 ml portion of water, and adsorbed radioactive material was then eluted with 3×4 ml of 70% ethanol. Typically, no significant radioactivity was found in the last water wash, and most of the bound radioactive material was found in the first ethanol eluate.\nGel electrophoresis and autoradiography. SDS-PAGE was carried out with slight modification of Laemmli (Laemmli, U. K., Nature, 227:680-685 (1970)). A Hoefer vertical slab gel electrophoresis unit (Hoefer Scientific Instruments, San Francisco, Calif.) was used for casting and electrophoresing with a 10% (w/v) acrylamide separating gel and a 4.5% (w/v) acrylamide stacking gel. Reaction mixtures, with total volumes of 75 μl, containing 0.15 μCi (0.26 μM) UDP-[^3 H] glucose, 10 ng of affinity purified enzyme (intact or heat denatured), in the absence and presence of increasing concentrations of DBM were incubated at 37° C. for 60 min. The reaction was terminated by addition of 5 μl of water and 20 μl of sample reducing buffer (5× concentrated) to give final concentrations of 40 mM Tris-Cl, pH 6.8, 1.5% (w/v) SDS, 6% (v/v) glycerol, 100 mM DTT and 0.002% (w/v) bromophenol blue and heated to 100° C. for 3 min. The supernatant was applied to the gel and electrophoresed at 7.5 mA for 16 hours. […]"}, "[1]": {"target": "T2, Rabbit muscle glycogen synthase (Oryctolagus cuniculus, UniProt P13834)", "T2 construct": "purchased Sigma Chemical Co; host or cells: rabbit muscle", "T2 sequence (P13834 1-735)": "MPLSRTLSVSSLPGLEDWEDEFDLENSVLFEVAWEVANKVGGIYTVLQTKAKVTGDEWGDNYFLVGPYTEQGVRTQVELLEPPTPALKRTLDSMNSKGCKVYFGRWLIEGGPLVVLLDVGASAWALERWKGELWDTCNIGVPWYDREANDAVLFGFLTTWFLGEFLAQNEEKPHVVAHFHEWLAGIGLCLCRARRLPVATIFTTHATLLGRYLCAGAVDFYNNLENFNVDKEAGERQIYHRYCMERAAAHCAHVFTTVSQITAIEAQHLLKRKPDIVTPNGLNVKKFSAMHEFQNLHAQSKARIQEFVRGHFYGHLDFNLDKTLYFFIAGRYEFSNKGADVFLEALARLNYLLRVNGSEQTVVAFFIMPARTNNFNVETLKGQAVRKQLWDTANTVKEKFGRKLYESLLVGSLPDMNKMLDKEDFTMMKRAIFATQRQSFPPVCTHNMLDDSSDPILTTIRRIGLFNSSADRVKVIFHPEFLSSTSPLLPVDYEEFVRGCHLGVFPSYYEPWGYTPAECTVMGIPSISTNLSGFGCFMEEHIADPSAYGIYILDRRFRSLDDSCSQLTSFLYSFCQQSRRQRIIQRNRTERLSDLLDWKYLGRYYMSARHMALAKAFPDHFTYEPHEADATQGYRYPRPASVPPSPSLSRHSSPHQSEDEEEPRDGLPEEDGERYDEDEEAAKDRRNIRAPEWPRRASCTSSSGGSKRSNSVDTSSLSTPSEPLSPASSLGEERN", "assay": "Glycogen synthase assay: glucose transfer from UDP-glucose to acceptor", "type": "biochemical", "conditions": "for rank as glucose acceptor for glycogen synthase: octyl-, dodecyl- and tetradecyl-maltosides compared, with G-6-P", "protocol": "Rabbit muscle glycogen synthase obtained from Sigma Chemical Co., (7.6 μg) was incubated with 0.45 μCi UDP-[^3 H]glucose (specific activity of 10.4 Ci/mmol), 1 mM UDP-glucose (glucose donor), 10 mM glucose-6-phosphate (the natural activator of glycogen synthase) and 1 mg glycogen (glucose acceptor) in 25 mM EDTA/5 mM DTT/100 mM glycine. NaOH buffer, pH 8.6 in a total volume of 100 μl for 30-240 minutes at 37° C. At different time points, glycogen was precipitated from the reaction mixtures with ethanol and the precipitate washed to remove any unincorporated radiolabel. The glycogen precipitate was then solubilized and counted in a liquid scintillation counter to quantitate the amount of [^3 H]glucose incorporated into glycogen.\nResults. When DBM (0.5 mM) replaces glycogen as the glucose acceptor in the incubation mixture, a linear transfer of glucose to DBM with time is seen up to 4 hours, with the glucose transfer amounting to about 20% of the maximal value seen with glycogen (using the SepPak C18 assay).\nWhen glycogen synthase was incubated for 24 hours with G-6-P, UDP-[^3 H]glucose and 0.5 mM DBM, several products of glucose transfer to DBM could be visualized following separation by thin layer chromatography and autoradiography. These products corresponded to the dodecyl-maltotrioside,-tetraoside, -pentaoside, -hexaoside, -heptaoside and higher oligosaccharide derivatives of DBM. […] Therefore, DBM and other suitable glycosides can serve as glucose acceptors for both glycogen synthase and glycogenin to promote glucose disposal in conditions such as hyperglycemia and diabetes mellitus. Providing an abundance of acceptor substrates in tissues, such as liver, which has a smaller number of extremely large glycogen molecules can alleviate the problem of excessive glycogen deposition in the glycogen storage diseases by promoting glucose disposal into more readily handled smaller glucose polymers built on DBM or other glycosides."}},
  "note": "Entries after “also recorded” stand apart in the source; their conditions may differ.",
  "data": [
    {"molecule": "CCCCCCCCO[C@@H]1O[C@H](CO)[C@@H](O)[C@H](O)[C@H]1O", "note": "[octyl-β-D-glucoside]", "values": [
      {"measurement": "activity as glucose acceptor substrate for glycogenin", "setting": "glycogenin", "value": "activities are low"}
    ]},
    {"molecule": "Nc1ccn([C@@H]2O[C@H](COP(=O)(O)OP(=O)(O)O)[C@@H](O)[C@H]2O)c(=O)n1", "note": "[Cytidine 5'-diphosphate, reference compound]", "values": [
      {"measurement": "inhibition of transfer of [3H]glucose to DBM by glycogenin", "setting": "glycogenin", "value": "inhibited the transfer of [^3 H]glucose to DBM by glycogenin in a dose dependent manner"},
      {"measurement": "inhibition of transfer of [3H]glucose to DBM by glycogenin", "setting": "glycogenin; listed as CDP", "value": "dose-dependent inhibition"}
    ]},
    {"molecule": "CCCCCCCCO[C@@H]1O[C@H](CO)[C@@H](O[C@H]2O[C@H](CO)[C@@H](O)[C@H](O)[C@H]2O)[C@H](O)[C@H]1O", "note": "[octyl-β-D-maltoside]", "values": [
      {"measurement": "rank as glucose acceptor for glycogen synthase", "setting": "[1]", "value": "best acceptor"},
      {"measurement": "activity as glucose acceptor substrate for glycogenin", "setting": "glycogenin", "value": "capable of serving as acceptor substrates"}
    ]},
    {"molecule": "dodecyl-β-D-sucrose", "values": [
      {"measurement": "activity as glucose acceptor substrate for glycogenin", "setting": "glycogenin", "value": "much lower activity"}
    ]},
    {"molecule": "CCCCCCCCO[C@H]1O[C@H](CO)[C@@H](O)[C@H](O)[C@H]1O", "note": "[Octyl-α-D-glucoside]", "values": [
      {"measurement": "activity as glucose acceptor substrate for glycogenin", "setting": "glycogenin", "value": "effective glucose acceptor"}
    ]},
    {"molecule": "CCCCCCCCCCO[C@@H]1O[C@H](CO)[C@@H](O[C@H]2O[C@H](CO)[C@@H](O)[C@H](O)[C@H]2O)[C@H](O)[C@H]1O", "note": "[decyl-β-D-maltoside]", "values": [
      {"measurement": "activity as glucose acceptor substrate for glycogenin", "setting": "glycogenin", "value": "capable of serving as acceptor substrates"}
    ]},
    {"molecule": "CCCCCCCCS[C@@H]1O[C@H](CO)[C@@H](O)[C@H](O)[C@H]1O", "note": "[octyl-β-D-thioglucoside]", "values": [
      {"measurement": "activity as glucose acceptor substrate for glycogenin", "setting": "glycogenin", "value": "more active as a glucose acceptor than octyl-β-D-glucoside"}
    ]},
    {"molecule": "CCCCCCCCCCCCO[C@@H]1O[C@H](CO)[C@@H](O[C@H]2O[C@H](CO)[C@@H](O)[C@H](O)[C@H]2O)[C@H](O)[C@H]1O", "note": "[DBM, dodecyl-β-D-maltoside]", "values": [
      {"measurement": "glucose transfer relative to maximal value seen with glycogen", "setting": "[1]; 0.5 mM acceptor replacing glycogen, up to 4 hours, SepPak C18 assay", "value": "about 20%"},
      {"measurement": "acceptor concentration giving near-maximal glycogen synthase activity", "setting": "[1]; 0.1 to 10 mM acceptor, 60 min incubation", "value": "less than 0.5 mM"},
      {"measurement": "length of acceptor-linked oligosaccharide products formed by glycogen synthase", "setting": "[1]; 24 hours with G-6-P, UDP-[3H]glucose, 0.5 mM acceptor, TLC and autoradiography", "value": "greater than seven glucose residues"},
      {"measurement": "activity as glucose acceptor substrate for glycogenin", "setting": "glycogenin", "value": "dose-dependent fashion; also recorded: best acceptor for glucose"},
      {"measurement": "xylose acceptor for glycogenin (product formed)", "setting": "glycogenin; UDP-[3H]xylose as donor substrate", "value": "DBM-xylose was formed"},
      {"measurement": "glucose acceptor activity of DBM relative to octyl-β-D-maltoside", "setting": "glycogenin; comparator octyl-β-D-maltoside", "value": "four times better"},
      {"measurement": "glucose acceptor activity of DBM relative to tetradecyl-β-D-maltoside", "setting": "glycogenin; comparator tetradecyl-β-D-maltoside", "value": "twice as active"}
    ]},
    {"molecule": "CCCCCCCCCCCCCCO[C@@H]1O[C@H](CO)[C@@H](O[C@H]2O[C@H](CO)[C@@H](O)[C@H](O)[C@H]2O)[C@H](O)[C@H]1O", "note": "[tetradecyl-β-D-maltoside]", "values": [
      {"measurement": "rank as glucose acceptor for glycogen synthase", "setting": "[1]", "value": "followed by DBM and tetradecylmaltoside"},
      {"measurement": "activity as glucose acceptor substrate for glycogenin", "setting": "glycogenin", "value": "capable of serving as acceptor substrates"}
    ]}
  ]
}
